Assay [1] addresses T1, EphA4 ligand-binding domain (Homo sapiens, UniProt P54764, C204A).
T1 construct: His-tagged fusion partner of modified pET32a (N, cleaved yes); made in house; host or cells: E. coli Rosetta-gami (DE3)
As to the kind of experiment: Isothermal titration calorimetry with EphA4 ligand-binding domain. Particulars: ITC; for Ka / Kb: 10 mM phosphate buffer pH 6.3, 25° C. As to the method: The free Cys176 in this extra tail was mutated to Ala by use of the site-directed mutagenesis kit (Stratagene) to avoid the formation of non-native disulfide bridges.
Titrations were conducted in 10 mM phosphate buffer (pH 6.3) at 25° C. […] The powders of the two compounds were weighted and then dissolved in 10 mM phosphate buffer with the final pH values adjusted to 6.3. The EphA4 receptor at a concentration of 70 μM was placed in a 1.8 ml sample cell while the compounds at a concentration of 2 mM were loaded into a 300 μL syringe. The samples were degassed for 15 min to remove bubbles before the titrations were initiated. Control experiments with the same parameter settings were also performed for the two compounds without EphA4, to subtract the effects due to sample dilution. To obtain thermodynamic binding parameters, the titration data after subtracting the values obtained from the control experiments were fit to a single binding site model using the built-in software ORIGIN version 5.0 (Microcal Software Inc.).
A general note: In ITC the heat of successive injections is recorded.

A further assay has as its target EphA4 (Mus musculus, UniProt Q03137). As to the kind of experiment: EphA4 tyrosine phosphorylation in HT22 neuronal cells. The assay is classed as cell-based. The arrangement: tyrosine phosphorylation of endogenous EphA4 in HT22 neuronal cells stimulated with ephrin-A5 Fc; endogenous in cells; host or cells: HT22 mouse hippocampal neuronal cells. Particulars: for ephrin-induced EphA4 tyrosine phosphorylation: HT22 cells stimulated with ephrin-A5 Fc; for EphA4 phosphorylation: cells stimulated with ephrin-A4. As to the method: FIGS. 6A-6F. A. HT22 neuronal cells pretreated with the indicated concentrations of compounds 1 or 2 for 15 min were stimulated with 0.5 μg/mL ephrin-A5 Fc (+) or Fc as a control (−) for 20 min in the continued presence of the compounds. EphA4 immunoprecipitates were probed with anti-phosphotyrosine antibody (PTyr) and reprobed for EphA4. C indicates immunoprecipitations performed with control antibodies from non-immunized rabbits. […] Error bars represent the standard error from 4 experiments for compound 1 and 3 experiments for compound 2. […] C. COS7 cells pretreated with the indicated concentrations of compounds 1 or 2 for 15 min were stimulated with 0.1 μg/mL ephrin-A1 Fc or Fc as a control in the continued presence of the compounds. EphA2 immunoprecipitates were probed with anti-phosphotyrosine antibody (PTyr) and reprobed for EphA2. C indicates immunoprecipitations performed with control antibodies. […] Error bars represent the standard error from 2 experiments. Statistical analyses were performed as in (B). HUVE cells were left unstimulated or stimulated with TNFα for 2 hours in the presence of 400 μM compound 1. Duplicate untreated samples are shown. C indicates immunoprecipitations performed with control antibodies. EphA2 immunoprecipitates were probed with anti-phosphotyrosine antibody (PTyr) and reprobed for EphA2. Levels of EphA2 phosphorylation quantified from immunoblots and normalized to the amount of immunoprecipitated EphA2 were also performed. […] The same protocol described in (C) was used, except that COS7 cells were stimulated with 0.5 μg/mL of ephrin-B2 Fc and the EphB2 receptor was immunoprecipitated. F. COS7 cells pretreated with the indicated concentrations of compounds 1 or 2 were stimulated with EGF (+) or left unstimulated (−). Lysates were probed with anti-phosphotyrosine antibody (PTyr) and reprobed for the EGF receptor.
Measurement of Receptor Tyrosine Phosphorylation in Cells—HT22 neuronal cells, which endogenously express EphA4, are derived from immortalized mouse hippocampal neurons (Li et al. (1997) Neuron 19(2), 453-463). COST cells, which endogenously express EphA2, EphB2 and the EGF receptor (EGFR), were obtained from ATCC. Both cell lines were grown in Dulbecco's Modified Eagle's Medium (DMEM) (Mediatech, Inc, Herndon, Va.) with 10% fetal bovine serum (FBS) (Hyclone, Logan, Utah) and Pen/Strep. For EphA4 immunoprecipitations, HT22 cells were serum-starved overnight in 0.5% FBS in DMEM and incubated for 15 min with the compounds or DMSO as a control. The cells were then stimulated with 0.5 μg/mL ephrin-A5 Fc, ephrin-A4 Fc or Fc for 20 min in the continued presence of the compounds. […] The protein concentration was calculated using the BCA protein assay kit (Pierce Biotecnology, Rockford, Ill.). […]

Here are results for two molecules from patent US20100256214A1, “EPH RECEPTOR LIGANDS AND METHODS OF USE” (Burnham Institute for Medical Research, priority 2009, published 2010).

EphA4, sequence (Q03137 20-986): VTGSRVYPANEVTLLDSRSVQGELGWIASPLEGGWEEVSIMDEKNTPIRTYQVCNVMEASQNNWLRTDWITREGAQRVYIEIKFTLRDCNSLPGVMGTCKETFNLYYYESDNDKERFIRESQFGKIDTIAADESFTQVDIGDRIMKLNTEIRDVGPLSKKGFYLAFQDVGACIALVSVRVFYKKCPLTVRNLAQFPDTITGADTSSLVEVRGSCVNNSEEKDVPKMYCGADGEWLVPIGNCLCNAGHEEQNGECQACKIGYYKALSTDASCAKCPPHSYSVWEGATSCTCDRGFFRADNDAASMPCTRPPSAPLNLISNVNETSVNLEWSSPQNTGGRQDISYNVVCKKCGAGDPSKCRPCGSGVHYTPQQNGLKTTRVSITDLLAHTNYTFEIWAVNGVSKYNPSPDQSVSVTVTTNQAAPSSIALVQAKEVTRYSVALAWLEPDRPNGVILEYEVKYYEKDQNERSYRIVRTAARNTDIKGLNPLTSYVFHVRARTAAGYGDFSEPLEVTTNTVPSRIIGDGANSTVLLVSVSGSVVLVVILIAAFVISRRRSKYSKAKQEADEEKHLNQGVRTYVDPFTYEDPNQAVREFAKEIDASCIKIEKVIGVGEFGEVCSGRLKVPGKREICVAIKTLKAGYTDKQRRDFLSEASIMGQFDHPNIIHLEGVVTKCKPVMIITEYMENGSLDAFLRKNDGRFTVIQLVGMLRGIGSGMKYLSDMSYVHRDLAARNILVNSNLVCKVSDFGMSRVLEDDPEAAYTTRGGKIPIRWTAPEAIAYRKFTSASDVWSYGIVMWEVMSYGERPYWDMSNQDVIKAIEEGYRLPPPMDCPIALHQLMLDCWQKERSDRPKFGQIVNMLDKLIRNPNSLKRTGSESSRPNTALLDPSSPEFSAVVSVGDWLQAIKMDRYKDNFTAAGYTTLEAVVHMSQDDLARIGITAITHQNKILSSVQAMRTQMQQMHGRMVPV
T1 sequence (P54764 29-209 C204A): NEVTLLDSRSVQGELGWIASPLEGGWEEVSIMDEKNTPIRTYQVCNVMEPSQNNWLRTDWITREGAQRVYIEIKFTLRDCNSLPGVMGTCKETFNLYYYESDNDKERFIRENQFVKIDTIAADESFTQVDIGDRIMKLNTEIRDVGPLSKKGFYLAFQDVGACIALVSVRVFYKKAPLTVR

Consider `Cc1ccc(C)n1-c1ccc(C(=O)O)c(O)c1` [compound 1, 4-(2,5-dimethyl-pyrrol-1-yl)-2-hydroxy-benzoic acid], for which, in assay [1], the dissociation constant (Kd) (in general, the equilibrium constant for the complex coming apart) came out at 20.4 µM; the Stoichiometry worked out at 1.000 ± 0; the “ΔH, enthalpy change of binding” value is given as −1,001 cal; the ΔS was 18.11 cal/mol*K. In assay [1], this molecule displayed a Ka of 48930 M⁻¹ and a Kb of 20.4 µM. On EphA4, the “ephrin-induced EphA4 tyrosine phosphorylation” value was “blocked” and the EphA4 phosphorylation result is “did not inhibit”.
As for `Cc1ccc(C)n1-c1ccc(O)c(C(=O)O)c1` [compound 2, 5-(2,5 dimethyl-pyrrol-1-yl)-2-hydroxy-benzoic acid], in assay [1], binding was characterised by a dissociation constant (Kd) of 26.4 µM; the Stoichiometry was found to be 1.000 ± 0; the “ΔH, enthalpy change of binding” value is -237 cal; the ΔS came to 20.15 cal/mol*K. For the same molecule, in assay [1], the Ka came out at 37850 M⁻¹ and the Kb stood at 26.4 µM. Also, at EphA4, the “ephrin-induced EphA4 tyrosine phosphorylation” value is “blocked” and the EphA4 phosphorylation entry is recorded as “did not inhibit”.
